System: hair cells in the lateral line of zebrafish
Assay: Analysis of hair cells in zebrafish larvae: protection against gentamicin-induced hair cell damage
Type: in vivo
Procedure: Zebrafish larvae (Wild type, Brn3c: EGFP, etc.) were cultured in the breeding room of our research institute. Each larva was cultured in embryo medium (15 mM NaCl, 0.5 mM KCl, 1 mM CaCl2, 1 mM MgSO4, 0.15 mM KH2PO4, 0.05 mM […], and 0.7 mM NaHCO3).
Gentamicin, an ototoxicity-inducing substance, was administered to zebrafish 5 days after fertilization, and the concentration of […] (LC 50) that induces 50% damage to hair cells in the lateral line of zebrafish as well as the time were determined. In the study results, 50 μM gentamicin was chosen since approximately 50% of the hair cells were damaged when administered for 1 hour. The effect was observed when 10 μM, 100 μM, 500 μM, and 1000 μM ammonium lactate were co-administered with 50 μM gentamicin for 1 hour.
There were four sites in hair cells of zebrafish, including orbits (SO1 and SO2), ear (O1), and larynx (OC1), and the number of hair cells was analyzed using a microscope (fluorescence microscope, confocal microscope, etc.). The effects of candidate substances capable of suppressing damage to hair cells caused by gentamicin were compared and analyzed by administering the candidate substances to zebrafish larvae at different concentrations.
To verify the protective effect of ammonium lactate on hair cells in zebrafish, ammonium lactate and gentamicin were co-administered to zebrafish, and the viability of hair cells was compared with that of the control group.

## CC(O)C(=O)O.N (centres unmarked) [ammonium lactate]
10 μM, 100 μM, 500 μM and 1000 μM ammonium lactate co-administered with 50 μM gentamicin
  viability of hair cells (trend): increased in a concentration-dependent manner
100 μM ammonium lactate + 50 μM gentamicin
  increase in the viability of hair cells: approximately 10%
100 μM ammonium lactate co-administered with 50 μM gentamicin for 1 hour, gentamicin only 26
  number of hair cells: 28
500 μM ammonium lactate + 50 μM gentamicin
  increase in the viability of hair cells: approximately 10%
500 μM ammonium lactate co-administered with 50 μM gentamicin for 1 hour, gentamicin only 26
  number of hair cells: 29
1000 μM ammonium lactate + 50 μM gentamicin
  increase in the viability of hair cells: ≥ 60%
1000 μM ammonium lactate co-administered with 50 μM gentamicin for 1 hour, gentamicin only 26
  number of hair cells: 42
zebrafish, gentamicin-induced damage
  protective effect on hair cells (conclusion): has a protective effect on hair cells

## gentamicin [reference compound]
50 μM gentamicin administered for 1 hour, zebrafish 5 days after fertilization
  hair cells damaged: approximately 50%
50 μM gentamicin only vs untreated control
  decrease in the viability of hair cells: 50%
50 μM gentamicin only, no ammonium lactate, untreated control 53
  number of hair cells: 26

Source: patent publication US20260165988A1, “PHARMACEUTICAL COMPOSITION FOR PREVENTING OR TREATING HEARING LOSS COMPRISING AMMONIUM LACTATE AS ACTIVE INGREDIENT” (KOREA UNIVERSITY RESEARCH AND BUSINESS FOUNDATION, priority 2022, published 2026)
